From patent US20210338715A1, “PHARMACEUTICAL COMPOSITION FOR THE TREATMENT OF COVID-19” (RADINOR, LLC, priority 2020, published 2021)

Experiments:
coronavirus = settings: cited from earlier work
[1] = Side effects of systemic therapeutic use; assay type: in vivo, human; settings: systemic therapeutic use in the context of the invention
Source text: In line with the reaction kinetic knowledge from the topical application of ClO2 solutions by Noszticzius et al., it was possible to confirm in the course of the present invention that, contrary to the earlier fears of parts of the professional world, a systemic therapeutic use of reactive oxidative species such as ClO2 need not in any way be accompanied by undesirable or even damaging effects.

[2] = humans; intake over a period of 14 days; cited from earlier work
human coronavirus = settings: cited from earlier work

[O][Cl+][O-] [chlorine dioxide]
effectiveness against coronavirus (coronavirus): effective against coronavirus | serious side effects or deaths [1]: no such effects have come to light | lethal dose LD50 [2]: 292 mg per kilogram of body weight per day | effectiveness against human coronavirus (human coronavirus): effective against human coronavirus
